The results in this text go back to patent publication US12290519B2, “Anti-inflammatory coupling compound drug, and preparation method therefor and use thereof” (COVAL BIOPHARMA (SHANGHAI) CO., LTD., priority 2021, dated 2025).

The nature of the series: Hydrolysis rate / drug release rate of the compounds (release of JAK inhibitor, HPLC). Type of series: physicochemical. As to conditions: % release of JAK inhibitor from sample in acetonitrile/water=7/3 (v/v), 37° C. constant temperature shaker, sampled days 1-4, HPLC. How it is done:
Analysis Method for Hydrolysis Rate of Compounds of the Present Invention
1. Preparation of Standard Working Curve Solution
About 10 mg of JAK inhibitors (tofacitinib and baricitinib) reference substances were weighed into a 25 mL volumetric flask, acetonitrile/water=7/3 (v/v) was added to dissolve and dilute to the marked volume, serving as a stock solution. The stock solution was diluted with a suitable dilution factor to obtain linear solutions of each concentration: 0.0002 mg/mL, 0.0004 mg/mL, 0.004 mg/mL, 0.04 mg/mL, and 0.08 mg/mL.
About 10 mg of JAK inhibitors (Oclacitinib, Ruxolitinib, Delgocitinib, and Upadacitinib) reference substances were weighed into a 25 mL volumetric flask, acetonitrile/water=7/3 (v/v) was added to dissolve and dilute to the marked volume, serving as a stock solution. The stock solution was diluted with a suitable dilution factor to obtain linear solutions of each concentration: 0.0002 mg/mL, 0.0004 mg/mL, 0.004 mg/mL, 0.04 mg/mL, and 0.08 mg/mL.
2. Preparation of Sample Solution
About 5 mg of the sample (the compound prepared in the present invention) was weighed into a 20 mL volumetric flask, acetonitrile/water=7/3 (v/v) was added to dissolve and dilute to the marked volume, serving as a stock solution. An appropriate amount of HPLC was loaded as the 0-day sample. The test solution was sealed with a sealing film and placed in a 37° C. constant temperature shaker. The test samples were taken at the same time on days 1, 2, 3, and 4 respectively. the release amount of JAK inhibitor in the sample was calculated according to the sample weight and JAK inhibitor standard curve.
3. Calculation Formula % Release of JAK Inhibitor r=100%×((AJAK Inhibitor−b)/a)/((W/20×M2/M1) wherein • AJAK inhibitor is the peak area of JAK inhibitor in the sample chromatogram • b is the intercept of the standard curve M1 is the molecular weight of the sample a is the slope of the standard curve
W is the sample weight (mg) M2 is the molecular weight of the JAK inhibitor
4. Chromatographic Conditions
For the compound `CC(C(=O)n1ccc2c(N(C)[C@H]3CN(C(=O)CC#N)CC[C@H]3C)ncnc21)c1cccc(Oc2ccccc2)c1` (stereo partly drawn) [Ex. 10, 3-((3R,4R)-4-methyl-3-(methyl (7-(2-(3-phenoxyphenyl)propanoyl)-7H-pyrrolo [2,3-d]pyrimidin-4-yl)amino)piperidin-1-yl)-3-oxopropanenitrile], the “Release Rate (%/day)” value worked out at 11.25 %/day.

On to `CCC(C(=O)n1ccc2c(N(C)C3CCC(CS(=O)(=O)NC)CC3)ncnc21)c1ccc(N2Cc3ccccc3C2=O)cc1` (stereo not drawn) [Ex. 35, N-methyl-1-((trans)-4-(methyl (7-(2-(4-(1-oxoisoindolin-2-yl)phenyl)butanoyl)-7H-pyrrolo [2,3-d]pyrimidin-4-yl)amino)cyclohexyl) methanesulfonamide], for which the “Release Rate (%/day)” value came to 4.57 %/day.

Consider `Cc1c(Cl)cccc1Nc1ccccc1C(=O)OCn1ccc2c(N(C)[C@H]3CN(C(=O)CC#N)CC[C@H]3C)ncnc21` [Ex. 66, (4-(((3R, 4R)-1-(2-cyanoacetyl)-4-methylpiperidin-3-yl) (methyl)amino)-7H-pyrrolo [2,3-d]pyrimidin-7-yl) methyl 2-((3-chloro-2-methylphenyl)amino) benzoate], for which the “Release Rate (%/day)” value came to 0.06 %/day.

Take `COc1ccc2c(c1)c(CC(=O)n1ccc3c(-c4cnn([C@H](CC#N)C5CCCC5)c4)ncnc31)c(C)n2C(=O)c1ccc(Cl)cc1` [Ex. 79, (R)-3-(4-(7-(2-(1-(4-chlorobenzoyl)-5-methoxy-2-methyl-1H-indol-3-yl)acetyl)-7H-pyrrolo [2,3-d]pyrimidin-4-yl)-1H-pyrazol-1-yl)-3-cyclopentylpropanenitrile]: the “Release Rate (%/day)” value came to 7.38 %/day.

As for `CCS(=O)(=O)N1CC(CC#N)(n2cc(-c3ncnc4c3ccn4C(=O)Cc3ccc(NC(C)=O)cc3)cn2)C1` [Ex. 24, N-(4-(2-(4-(1-(3-(cyanomethyl)-1-(ethylsulfonyl)azetidin-3-yl)-1H-pyrazol-4-yl)-7H-pyrrolo [2,3-d]pyrimidin-7-yl)-2-oxoethyl)phenyl) acetamide], the “Release Rate (%/day)” value was 5.96 %/day.

Take `CCS(=O)(=O)N1CC(CC#N)(n2cc(-c3ncnc4c3ccn4C(=O)Cc3c(C)n(C(=O)c4ccc(Cl)cc4)c4ccc(OC)cc34)cn2)C1` [Ex. 23, 2-(3-(4-(7-(2-(1-(4-chlorobenzoyl)-5-methoxy-2-methyl-1H-indol-3-yl)acetyl)-7H-pyrrolo [2,3-d]pyrimidin-4-yl)-1H-pyrazol-1-yl)-1-(ethylsulfonyl)azetidin-3-yl) acetonitrile]: the “Release Rate (%/day)” value was found to be 7.63 %/day.

For `CNS(=O)(=O)C[C@H]1CC[C@H](N(C)c2ncnc3c2ccn3COC(=O)Cc2ccc(NC(C)=O)cc2)CC1` [Ex. 93, (4-(Methyl ((trans)-4-((N-methylsulfamoyl)methyl)cyclohexyl)amino)-7H-pyrrolo [2,3-d]pyrimidin-7-yl) methyl 2-(4-acetamidophenyl) acetate], the “Release Rate (%/day)” value amounted to 0.83 %/day.

Consider `CC(C(=O)OCn1ccc2c(N(C)[C@H]3CN(C(=O)CC#N)CC[C@H]3C)ncnc21)c1cccc(Oc2ccccc2)c1` (stereo partly drawn) [Ex. 52, (4-(((3R, 4R)-1-(2-cyanoacetyl)-4-methylpiperidin-3-yl) (methyl)amino)-7H-pyrrolo [2,3-d]pyrimidin-7-yl) methyl 2-(3-phenoxyphenyl) propanoate], for which the “Release Rate (%/day)” value was found to be 0.1 %/day.

For `CCS(=O)(=O)N1CC(CC#N)(n2cc(-c3ncnc4c3ccn4COC(=O)[C@@H](C)c3ccc(CC(C)C)cc3)cn2)C1` [Ex. 60, Methyl (4-(1-(3-(cyanomethyl)-1-(ethylsulfonyl)azetidin-3-yl)-1H-pyrazol-4-yl)-7H-pyrrolo [2,3-d]pyrimidin-7-yl) (S)-2-(4-isobutylphenyl) propanoate], the “Release Rate (%/day)” value is recorded as less than 0.01 %/day.

On to `CCS(=O)(=O)N1CC(CC#N)(n2cc(-c3ncnc4c3ccn4C(=O)C(C)c3cccc(Oc4ccccc4)c3)cn2)C1` (centres unmarked) [Ex. 21, 2-(1-(Ethylsulfonyl)-3-(4-(7-(2-(3-phenoxyphenyl)propanoyl)-7H-pyrrolo [2,3-d]pyrimidin-4-yl)-1H-pyrazol-1-yl)azetidin-3-yl) acetonitrile], for which the “Release Rate (%/day)” value was found to be 4.6 %/day.

Turning to `CNS(=O)(=O)C[C@H]1CC[C@H](N(C)c2ncnc3c2ccn3COC(=O)[C@@H](NC(=O)OC(C)(C)C)c2ccccc2)CC1` [Ex. 91, (4-(Methyl ((trans)-4-((N-methylsulfamoyl)methyl)cyclohexyl)amino)-7H-pyrrolo [2,3-d]pyrimidin-7-yl) methyl (S)-2-((tert-butoxycarbonyl)amino)-2-phenylacetate], the “Release Rate (%/day)” value was 1.65 %/day.

As to `CCc1cccc2c3c([nH]c12)C(CC)(CC(=O)n1ccc2c(-c4cnn(C5(CC#N)CN(S(=O)(=O)CC)C5)c4)ncnc21)OCC3` (centres unmarked) [Ex. 25, 2-(3-(4-(7-(2-(1,8-diethyl-1,3,4,9-tetrahydropyrano [3,4-b]indol-1-yl)acetyl)-7H-pyrrolo [2,3-d]pyrimidin-4-yl)-1H-pyrazol-1-yl)-1-(ethylsulfonyl)azetidin-3-yl) acetonitrile], the “Release Rate (%/day)” value was 0.68 %/day.

Consider `CC(=O)Nc1ccc(CC(=O)n2ccc3c(-c4cnn([C@H](CC#N)C5CCCC5)c4)ncnc32)cc1` [Ex. 78, (R)—N-(4-(2-(4-(1-(2-cyano-1-cyclopentylethyl)-1H-pyrazol-4-yl)-7H-pyrrolo [2,3-d]pyrimidin-7-yl)-2-oxoethyl)phenyl) acetamide], for which the “Release Rate (%/day)” value came to 6.27 %/day.

As for `CCc1cccc2c3c([nH]c12)C(CC)(CC(=O)OCn1ccc2c(N(C)[C@H]4CN(C(=O)CC#N)CC[C@H]4C)ncnc21)OCC3` (stereo partly drawn) [Ex. 63, (4-(((3R, 4R)-1-(2-cyanoacetyl)-4-methylpiperidin-3-yl) (methyl)amino)-7H-pyrrolo [2,3-d]pyrimidin-7-yl) methyl 2-(1,8-diethyl-1,3,4,9-tetrahydropyrano [3,4-b]indol-1-yl) acetate], the “Release Rate (%/day)” value is on record as 0.02 %/day.

Take `CCc1cccc2c3c([nH]c12)C(CC)(CC(=O)n1ccc2c(N(C)C4CCC(CS(=O)(=O)NC)CC4)ncnc21)OCC3` (stereo not drawn) [Ex. 37, 1-((Trans)-4-((7-(2-(1,8-diethyl-1,3,4,9-tetrahydropyrano [3,4-b]indol-1-yl)acetyl)-7H-pyrrolo [2,3-d]pyrimidin-4-yl) (methyl)amino)cyclohexyl)-N-methyl methanesulfonamide]: the “Release Rate (%/day)” value came out at 1.05 %/day.

On to `CCS(=O)(=O)N1CC(CC#N)(n2cc(-c3ncnc4c3ccn4COC(=O)C(C)c3ccc(CC4CCCC4=O)cc3)cn2)C1` (centres unmarked) [Ex. 72, Methyl (4-(1-(3-(cyanomethyl)-1-(ethylsulfonyl)azetidin-3-yl)-1H-pyrazol-4-yl)-7H1-pyrrolo [2,3-d]pyrimidin-7-yl) 2-(4-((2-oxocyclopentyl)methyl)phenyl) propanoate], for which the “Release Rate (%/day)” value is less than 0.01 %/day.

Turning to `CNS(=O)(=O)CC1CCC(N(C)c2ncnc3c2ccn3COC(=O)Cc2c(C)n(C(=O)c3ccc(Cl)cc3)c3ccc(OC)cc23)CC1` (stereo not drawn) [Ex. 116, (4-(Methyl ((trans)-4-((N-methylsulfamoyl)methyl)cyclohexyl)amino)-7H-pyrrolo [2,3-d]pyrimidin-7-yl) methyl 2-(1-(4-chlorobenzoyl)-5-methoxy-2-methyl-1H-indol-3-yl) acetate], the “Release Rate (%/day)” value came to 0.42 %/day.

As for `CCC(C(=O)OCn1ccc2c(-c3cnn(C4(CC#N)CN(S(=O)(=O)CC)C4)c3)ncnc21)c1ccc(N2Cc3ccccc3C2=O)cc1` (centres unmarked) [Ex. 76, Methyl (4-(1-(3-(cyanomethyl)-1-(ethylsulfonyl)azetidin-3-yl)-1H-pyrazol-4-yl)-7H-pyrrolo [2,3-d]pyrimidin-7-yl) 2-(4-(1-oxoisoindolin-2-yl)phenyl) butanoate], the “Release Rate (%/day)” value is listed as 0.05 %/day.

For `CC(=O)Nc1ccc(CC(=O)n2ccc3c(N(C)[C@H]4CN(C(=O)CC#N)CC[C@H]4C)ncnc32)cc1` [Ex. 13, N-(4-(2-(4-(((3R, 4R)-1-(2-cyanoacetyl)-4-methylpiperidin-3-yl) (methyl)amino)-7H-pyrrolo[2,3-d]pyrimidin-7-yl)-2-oxoethyl)phenyl)acetamide], the “Release Rate (%/day)” value is 12.18 %/day.

In the case of `C[C@@H]1CCN(C(=O)CC#N)C[C@@H]1N(C)c1ncnc2c1ccn2COC(=O)[C@@H](NC(=O)OC(C)(C)C)c1ccccc1` [Ex. 64, (4-(((3R, 4R)-1-(2-cyanoacetyl)-4-methylpiperidin-3-yl) (methyl)amino)-7H-pyrrolo [2,3-d]pyrimidin-7-yl) methyl (S)-2-((tert-butoxycarbonyl)amino)-2-phenylacetate], the “Release Rate (%/day)” value amounted to 0.88 %/day.
